The values that follow come from patent US9150510B2, “Amino acid derivative” (NIPPON ZOKI PHARMACEUTICAL CO., LTD., priority 2008, dated 2015).

Format in all cases: in vivo
The subject of data set [1] is Chung model rat. Put plainly: Analgesic efficacy test (2): Chung model rat, neuropathic pain model (allodynia, von Frey filament). As to conditions: Table 13, Wistar male rats, L5 spinal nerve ligation, mean ± standard error. As for the experimental part:
An analgesic efficacy test was conducted using a Chung model rat, a neuropathic pain model. Using Wistar male rats after passing 9-week old as an experimental animal, a model rat was prepared in accordance with the method of Kim and Chung (Pain, 50, 355-363, 1992). Specifically, left L5 spinal nerves of rats were exposed under anesthetization with pentobarbital (35 mg/kg, intraperitoneal administration), and firmly ligated with 5-0 silk yarn at L5 dorsal root ganglion peripheral side. The animals were placed in a transparent acrylic cage of which bottom was wire netted The measurement of allodynia was carried out using von Frey filament (manufactured by North Coast Medical Inc.) and a 50% reaction threshold was calculated according to an up-down method, in accordance with methods of Chaplan et al. (J. Neurosci. Method, 53, 55-63, 1994) and Lee et al. (J. Neurophysiol., 81, 2226-2233, 1999). The 50% reaction thresholds were measured twice before injury of the spinal nerve, and those animals of which thresholds were outside the standard were removed from the operation of spinal nerve injury. On or after 14 days from the spinal nerve injury, a 50% reaction threshold was measured, and those showing thresholds of 1 g or more and less than 4 g were used as experimental animal. The group was constituted by 7 rats per group so that an average of a 50% reaction threshold for each group would be nearly even.
A solution or suspension prepared by dissolving or suspending a compound of the present invention in a 0.5% (w/v) aqueous CMC-Na solution was orally administered as a test substance in a single dose while, a 0.5% (w/v) aqueous CMC-Na solution was administered in the same manner to the control group for nerve injury. After 30 minutes from the administration, the measurement of allodynia was carried out, and a 50% reaction threshold (mean±standard error) was calculated. In the test for significance difference, Baltlett's test was carried out in the comparison between multiple groups of the group administered with test substance with the control group for nerve injury. In the case of homoscedasticity, Dunnett's multiple comparison test of parametrics, and in the case of heteroscedasticity, Dunnett's multiple comparison test of non-parametrics were used. In all cases, significance difference was considered to be found at P<0.05.

Data set [2] in a line: Test of blood kinetics in the rats. The settings on record: rat, plasma, 2 mg/kg, fasted Wistar male rats, oral single dose of mixed solution of five compounds, each compound 2 mg/5 mL/kg, n=5, LC-MS; for AUC(0-inf): read-out: AUC0-∞ (area under the curve for concentration in blood, time 0 to infinite hours); for Cmax: read-out: Cmax (maximum concentration in plasma). As for the experimental part:
Ten milligrams of a compound of the present invention was properly converted to a sodium salt with the same amount of sodium hydroxide, where necessary, and each was dissolved in 5 mL of water. Five compounds each among these aqueous solutions of the compounds of the present inventions were mixed, to prepare a mixed solution containing 0.4 mg/mL each of each compound. Six-week old Wistar SPF male rats that were fasted were orally administered with the mixed solution in a single dose using a gavage tube (each compound 2 mg/5 mL/kg, n=5). At time points of 0.25, 0.5, 1, 2, 4, and 8 hours after the administration, about 150 μL of blood was collected using a heparin-added capillary tube from veins of rat tails. The capillary tubes were centrifuged to collect the plasma. The plasma sample was deprotenized and the supernatant was diluted to prepare each of measurement sample solutions. The concentration of the compound of the present invention in each of measurement sample solutions was quantified using LC-MS, and Cmax (maximum concentration in plasma) and AUC (area under the curve for concentration in blood, time 0 to infinite (∞) hours) of the compounds of the present invention were calculated.

The subject of data set [3] is ddY-type mice. Put plainly: Analgesic efficacy test (1): acetic acid writhing test (nociceptive pain model animal). As to conditions: Mus musculus, 25 min, writhing number, male ddY mice, acetic acid i.p. 25 min after administration, mean ± standard error, read-out: Percent Suppression (%); for inhibition in vivo at 10 mg/kg: oral single dose 10 mg/kg; for inhibition in vivo at 100 mg/kg: oral single dose 100 mg/kg. The text has this:
A compound of the present invention was orally administered to mice, to carry out an analgesic efficacy test according to acetic acid writhing test (nociceptive pain model animal). As an experimental animal, 4-week old male ddY-type mice were previously bred, and thereafter 8 mice per one group were used in the experiment. A solution or suspension prepared by dissolving or suspending a compound of the present invention in a 0.5% (w/v) aqueous CMC-Na solution was orally administered as a test substance in a single dose. While, to a control group, a 0.5% (w/v) aqueous CMC-Na solution was administered in the same manner. After 25 minutes from administration, the mice were intraperitoneally administered with a 0.7% (v/v) acetic acid/physiological saline at the dose of 10 mL/kg. From 5 minutes thereafter, writhing number in a 10-minute period was counted, and a suppressive rate for each individual (mean±standard error) was calculated by the following formula: […]
In the test for significance difference, Baltlett's test was carried out in the comparison between multiple groups of the group administered with test substance with the control group. In the case of homoscedasticity, Dunnett's multiple comparison test of parametrics, and in the case of heteroscedasticity, Dunnett's multiple comparison test of non-parametrics were used. In addition, in the test of dose dependency, Jockheere-Terpstra's test was used. In all cases, significance difference was considered to be found at P<0.05.

Consider `O=C(C=Cc1c(F)cccc1F)N[C@@H](Cc1c[nH]c2ccccc12)C(=O)O` [Compound 13, N^α-[3-(2,6-Difluorophenyl)acryloyl]-L-tryptophan], for which, in data set [1] (oral single dose 10 mg/kg), the “50% Reaction Threshold (g), Group Administered with Test Substance, 30 Min. After Administration” value (from here on “50% Reaction Threshold (g)”) worked out at 9.94 ± 1.56 g. For the same molecule, in data set [2], the AUC(0-inf) was 46300 ng·h/mL and the Cmax is 7400 ng/mL. Also, the inhibition in vivo at 10 mg/kg in data set [3] is 52.9 ± 7.7%.
Regarding `O=C(C=Cc1cc(F)ccc1F)N[C@@H](Cc1c[nH]c2ccccc12)C(=O)O` [Compound 15, N^α-[3-(2,5-Difluorophenyl)acryloyl]-L-tryptophan], the “50% Reaction Threshold (g)” value in data set [1] (oral single dose 10 mg/kg) is 9.12 ± 1.55 g. Further, in data set [2], the AUC(0-inf) came to 19400 ng·h/mL and the Cmax was found to be 2800 ng/mL. Besides, the inhibition in vivo at 100 mg/kg in data set [3] was 61.3 ± 9.9%.
On to `O=C(C=Cc1ccccc1)N[C@@H](Cc1c[nH]c2ccccc12)C(=O)O` [Compound 8, N^α-(3-Phenylacryloyl)-L-tryptophan], for which the “50% Reaction Threshold (g)” value in data set [1] (oral single dose 10 mg/kg) was 8.39 ± 1.30 g. In addition, in data set [2], the AUC(0-inf) came out at 21900 ng·h/mL and the Cmax came to 5000 ng/mL. Also, the inhibition in vivo at 10 mg/kg in data set [3] is 67.7 ± 10.3%.
Consider `O=C(C=Cc1cccc(F)c1)N[C@@H](Cc1c[nH]c2ccccc12)C(=O)O` [Compound 4, N^α-[3-(3-Fluorophenyl)acryloyl]-L-tryptophan], for which the “50% Reaction Threshold (g)” value in data set [1] (oral single dose 10 mg/kg) was determined as 10.73 ± 1.59 g. In addition, in data set [2], the AUC(0-inf) was 28700 ng·h/mL and the Cmax was 4300 ng/mL. Besides, the inhibition in vivo at 100 mg/kg in data set [3] was determined as 42.4 ± 8.3%.
Take `C=CC(=O)N[C@@H](Cc1c[nH]c2ccccc12)C(=O)O` [Compound 1, N^α-Acryloyl-L-tryptophan]: the “50% Reaction Threshold (g)” value in data set [1] (oral single dose 10 mg/kg) was determined as 11.18 ± 1.74 g. Moreover, in data set [2], the AUC(0-inf) came out at 24200 ng·h/mL and the Cmax is 7100 ng/mL. The inhibition in vivo at 10 mg/kg in data set [3] turned out to be 25.7 ± 6.3%.
As for `NC(=O)[C@H](Cc1c[nH]c2ccccc12)NC(=O)C=Cc1ccccc1F` [Compound 23, N^α-[3-(2-Fluorophenyl)acryloyl]-L-tryptophanamide], in data set [1] (oral single dose 10 mg/kg), the “50% Reaction Threshold (g)” value came out at 9.37 ± 1.56 g. Besides, the inhibition in vivo at 100 mg/kg in data set [3] is 48.2 ± 11.5%.
Turning to `COc1ccccc1C=CC(=O)N[C@@H](Cc1c[nH]c2ccccc12)C(=O)O` [Compound 11, N^α-[3-(2-Methoxyphenyl)acryloyl]-L-tryptophan], the “50% Reaction Threshold (g)” value in data set [1] (oral single dose 10 mg/kg) was 10.55 ± 1.50 g. In data set [2], the AUC(0-inf) came out at 10600 ng·h/mL and the Cmax was found to be 1700 ng/mL. Further, in data set [3], the inhibition in vivo at 100 mg/kg came out at 60.9 ± 5.9%.
As for `O=C(C=Cc1ccc(F)cc1)N[C@@H](Cc1c[nH]c2ccccc12)C(=O)O` [Compound 5, N^α-[3-(4-Fluorophenyl)acryloyl]-L-tryptophan], the “50% Reaction Threshold (g)” value in data set [1] (oral single dose 10 mg/kg) is listed as 6.87 ± 1.28 g. For the same molecule, in data set [2], the AUC(0-inf) stood at 14600 ng·h/mL and the Cmax came out at 2300 ng/mL. The inhibition in vivo at 10 mg/kg in data set [3] was 51.3 ± 10.9%.
Consider `O=C(N[C@@H](Cc1c[nH]c2ccccc12)C(=O)O)c1cc2ccccc2oc1=O` [Compound 21, N^α-(Coumarin-3-carbonyl)-L-tryptophan], for which the “50% Reaction Threshold (g)” value in data set [1] (oral single dose 1 mg/kg) was determined as 3.93 ± 0.16 g. Also, the inhibition in vivo at 10 mg/kg in data set [3] was 38.3 ± 6.5%.
`N#Cc1ccccc1C=CC(=O)N[C@@H](Cc1c[nH]c2ccccc12)C(=O)O` [Compound 9, N^α-[3-(2-Cyanophenyl)acryloyl]-L-tryptophan]: the “50% Reaction Threshold (g)” value in data set [1] (oral single dose 1 mg/kg) came to 6.28 ± 0.42 g. In data set [3], the inhibition in vivo at 10 mg/kg was 41 ± 12.9%.
With `C=CC(=O)N[C@@H](Cc1ccc(OC)cc1)C(=O)O` [Compound 38, N-Acryloyl-O^4-methyl-L-tyrosine], the “50% Reaction Threshold (g)” value in data set [1] (oral single dose 1 mg/kg) is listed as 5.44 ± 0.75 g. In addition, in data set [2], the AUC(0-inf) was 8500 ng·h/mL and the Cmax was determined as 2800 ng/mL. The inhibition in vivo at 100 mg/kg in data set [3] is 52 ± 8.2%.
As to `O=C(C=Cc1ccccc1C(F)(F)F)N[C@@H](Cc1c[nH]c2ccccc12)C(=O)O` [Compound 10, N^α-[3-(2-Trifluoromethylphenyl)acryloyl]-L-tryptophan], the “50% Reaction Threshold (g)” value in data set [1] (oral single dose 10 mg/kg) was 6.73 ± 1.26 g. In addition, in data set [3], the inhibition in vivo at 10 mg/kg is 41.6 ± 9.6%.
Turning to `N#CC(=Cc1ccccc1F)C(=O)N[C@@H](Cc1c[nH]c2ccccc12)C(=O)O` [Compound 22, N^α-[2-Cyano-3-(2-fluorophenyl)acryloyl]-L-tryptophan], the “50% Reaction Threshold (g)” value in data set [1] (oral single dose 10 mg/kg) was found to be 11.34 ± 1.52 g. Further, in data set [2], the AUC(0-inf) turned out to be 11400 ng·h/mL and the Cmax was 4000 ng/mL. Moreover, the inhibition in vivo at 10 mg/kg in data set [3] was determined as 39.9 ± 8.6%.
On to `CSCC[C@H](NC(=O)C=Cc1ccccc1F)C(=O)O` [Compound 67, N-[3-(2-Fluorophenyl)acryloyl]-L-methionine], for which, in data set [1] (oral single dose 1 mg/kg), the “50% Reaction Threshold (g)” value is given as 4.94 ± 0.61 g. Also, the inhibition in vivo at 10 mg/kg in data set [3] came to 43.5 ± 6.9%.
As to `O=C(N[C@@H](Cc1c[nH]c2ccccc12)C(=O)O)c1cc2ccccc2o1` [Compound 20, N^α-(Benzofuran-2-carbonyl)-L-tryptophan], the “50% Reaction Threshold (g)” value in data set [1] (oral single dose 1 mg/kg) stood at 6.13 ± 0.75 g. Moreover, in data set [2], the AUC(0-inf) came to 10200 ng·h/mL and the Cmax stood at 3000 ng/mL. Moreover, in data set [3], the inhibition in vivo at 100 mg/kg turned out to be 41.6 ± 6%.
As to `O=C(C=Cc1ccc(F)cc1F)N[C@@H](Cc1c[nH]c2ccccc12)C(=O)O` [Compound 14, N^α-[3-(2,4-Difluorophenyl)acryloyl]-L-tryptophan], in data set [1] (oral single dose 10 mg/kg), the “50% Reaction Threshold (g)” value stood at 9.38 ± 1.68 g. Besides, in data set [2], the AUC(0-inf) was 33900 ng·h/mL and the Cmax turned out to be 4800 ng/mL. Moreover, the inhibition in vivo at 10 mg/kg in data set [3] was 43.2 ± 10.9%.
With `N#Cc1ccc(C=CC(=O)N[C@@H](Cc2c[nH]c3ccccc23)C(=O)O)cc1` [Compound 19, N^α-[3-(4-Cyanophenyl)acryloyl]-L-tryptophan], the “50% Reaction Threshold (g)” value in data set [1] (oral single dose 1 mg/kg) is recorded as 5.16 ± 0.41 g. Besides, the inhibition in vivo at 100 mg/kg in data set [3] was 52.2 ± 6.1%.
In the case of `O=C(C=Cc1ccccc1O)N[C@@H](Cc1c[nH]c2ccccc12)C(=O)O` [Compound 2, N^α-[3-(2-Hydroxyphenyl)acryloyl]-L-tryptophan], the “50% Reaction Threshold (g)” value in data set [1] (oral single dose 10 mg/kg) is on record as 11.64 ± 1.81 g. Moreover, in data set [3], the inhibition in vivo at 10 mg/kg came out at 41.8 ± 4.1%.
